Test results reported in ChEMBL document CHEMBL1155471, “Discovery of potent, balanced and orally active dual NK1/NK3 receptor ligands” (Bioorg Med Chem Lett, 2010).

Legend:
[1] = target: Substance-P receptor (Homo sapiens, UniProt P25103); test: Displacement of [3H]substance P from human NK1 receptor expressed in CHO cells; format: cell-based
[2] = target: T1, Neuromedin-K receptor (Homo sapiens, UniProt P29371); test: Displacement of [3H]SR142801 from human NK3 receptor expressed in HEK293-EBNA cells; format: cell-based
T1 sequence (P29371 whole entry): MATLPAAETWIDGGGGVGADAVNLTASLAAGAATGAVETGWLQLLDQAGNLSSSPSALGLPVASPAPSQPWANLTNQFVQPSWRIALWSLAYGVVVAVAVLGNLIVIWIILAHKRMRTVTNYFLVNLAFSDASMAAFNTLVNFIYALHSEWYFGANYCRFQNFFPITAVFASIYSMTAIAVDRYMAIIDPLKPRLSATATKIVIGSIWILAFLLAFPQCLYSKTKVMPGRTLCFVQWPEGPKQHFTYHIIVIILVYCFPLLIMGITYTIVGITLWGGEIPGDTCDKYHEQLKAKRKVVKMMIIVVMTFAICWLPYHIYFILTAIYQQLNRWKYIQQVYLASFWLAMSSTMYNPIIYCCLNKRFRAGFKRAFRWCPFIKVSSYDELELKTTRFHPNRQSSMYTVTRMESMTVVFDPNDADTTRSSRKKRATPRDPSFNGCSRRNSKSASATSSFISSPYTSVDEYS

[3] = tested on: Meriones unguiculatus; test: Inhibition of GR-73632-induced foot tapping behavior in Mongolian gerbil at 10 mg/kg, po administered 2 hrs before GR-73632 challenge; format: functional
[4] = tested on: Meriones unguiculatus; test: Inhibition of GR-73632-induced foot tapping behavior in po dosed Mongolian gerbil administered 2 hrs before GR-73632 challenge; format: functional; conditions: read-out: ID50 (the source's name)

Chain of Substance-P receptor (P25103 whole entry): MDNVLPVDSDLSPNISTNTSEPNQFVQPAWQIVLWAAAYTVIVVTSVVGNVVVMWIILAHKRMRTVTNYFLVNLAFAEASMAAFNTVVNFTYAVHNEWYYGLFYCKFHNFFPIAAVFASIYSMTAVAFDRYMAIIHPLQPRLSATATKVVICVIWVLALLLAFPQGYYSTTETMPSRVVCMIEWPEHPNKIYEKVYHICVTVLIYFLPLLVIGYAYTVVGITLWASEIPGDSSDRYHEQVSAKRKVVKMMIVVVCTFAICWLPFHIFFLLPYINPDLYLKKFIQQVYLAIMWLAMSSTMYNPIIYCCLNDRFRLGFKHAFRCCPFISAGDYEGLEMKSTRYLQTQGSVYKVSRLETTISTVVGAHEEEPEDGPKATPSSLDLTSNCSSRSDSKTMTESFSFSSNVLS

SMILES	Ki [1] [nM]	Ki [2] [nM]	inhibition in vivo at 10 mg/kg [3] [%]	ED50 [4] [mg/kg]
CN(C(=O)C(C)(C)c1cc(C(F)(F)F)cc(C(F)(F)F)c1)c1cnc(N2CCCC(O)C2)cc1-c1ccccc1Cl (configuration not stated)	1.72	15.1	–	–
CN(C(=O)C(C)(C)c1cc(C(F)(F)F)cc(C(F)(F)F)c1)c1cnc(N2CCC[C@@H]2CO)cc1-c1ccccc1Cl	1.58	7.27	–	–
CN(C(=O)C(C)(C)c1cc(C(F)(F)F)cc(C(F)(F)F)c1)c1cnc(N2CCCC[C@H]2CO)cc1-c1ccccc1Cl	11.1	7.72	–	–
CN(C(=O)C(C)(C)c1cc(C(F)(F)F)cc(C(F)(F)F)c1)c1cnc(N2CCCC[C@@H]2CO)cc1-c1ccccc1Cl	2.27	29.7	–	–
CN(C(=O)C(C)(C)c1cc(C(F)(F)F)cc(C(F)(F)F)c1)c1cnc(N2C[C@@H](O)C[C@H]2CO)cc1-c1ccccc1Cl	–	–	–	1.3
CN(C(=O)C(C)(C)c1cc(C(F)(F)F)cc(C(F)(F)F)c1)c1cnc(N2C[C@H](O)C[C@H]2CO)cc1-c1ccccc1Cl	–	1.12	–	1.1
COC[C@@H]1C[C@@H](OC)CN1c1cc(-c2ccccc2Cl)c(N(C)C(=O)C(C)(C)c2cc(C(F)(F)F)cc(C(F)(F)F)c2)cn1	0.91	29.8	–	–
CN(C(=O)C(C)(C)c1cc(C(F)(F)F)cc(C(F)(F)F)c1)c1cnc(N2CC[C@H](O)[C@H]2CO)cc1-c1ccccc1Cl	1.58	0.91	–	–
CN(C(=O)C(C)(C)c1cc(C(F)(F)F)cc(C(F)(F)F)c1)c1cnc(N2CC[C@H](O)C2)cc1-c1ccccc1Cl	0.86	8.38	–	–
CN(C(=O)C(C)(C)c1cc(C(F)(F)F)cc(C(F)(F)F)c1)c1cnc(N2CCC[C@H]2CO)cc1-c1ccccc1Cl	1	0.74	–	–
CN(C(=O)C(C)(C)c1cc(C(F)(F)F)cc(C(F)(F)F)c1)c1cnc(N2CC[C@@H](O)C2)cc1-c1ccccc1Cl	2.62	6.87	–	–

Further lines, with some results ahead:

Ki [1] [nM]	Ki [2] [nM]	SMILES	inhibition in vivo at 10 mg/kg [3] [%]	ED50 [4] [mg/kg]
0.78	2.91	CN(CCO)c1cc(-c2ccccc2Cl)c(N(C)C(=O)C(C)(C)c2cc(C(F)(F)F)cc(C(F)(F)F)c2)cn1	–	–
3.37	12.2	CCN(CCO)c1cc(-c2ccccc2Cl)c(N(C)C(=O)C(C)(C)c2cc(C(F)(F)F)cc(C(F)(F)F)c2)cn1	100	–
1.15	0.91	CN(C(=O)C(C)(C)c1cc(C(F)(F)F)cc(C(F)(F)F)c1)c1cnc(N(CCO)CCO)cc1-c1ccccc1Cl	–	–
1.38	0.95	CN(C(=O)C(C)(C)c1cc(C(F)(F)F)cc(C(F)(F)F)c1)c1cnc(N(CCO)CCCO)cc1-c1ccccc1Cl	–	–
2.24	5.4	CCCN(CCO)c1cc(-c2ccccc2Cl)c(N(C)C(=O)C(C)(C)c2cc(C(F)(F)F)cc(C(F)(F)F)c2)cn1	100	–
1.12	–	CN(C(=O)C(C)(C)c1cc(C(F)(F)F)cc(C(F)(F)F)c1)c1cnc(NCCO)cc1-c1ccccc1Cl	–	1
3.05	93.3	COCCNc1cc(-c2ccccc2Cl)c(N(C)C(=O)C(C)(C)c2cc(C(F)(F)F)cc(C(F)(F)F)c2)cn1	–	–
